In the assay the test system is P388 leukemia ip, CD2F1 mice, survival T/C. Kind of assay: NCI In Vivo Anticancer Drug Screen. Data for tumor model P388 Leukemia (intraperitoneal) in CD2F1 (CDF1) mice. The settings on record: endpoint: median survival time, higher = longer survival. The essentials:
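Mice carrying the transplanted tumor received test compound or vehicle. Survival was recorded in each group, and the value is the treated-group measurement divided by that of the vehicle-treated control group.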

Setting [1] is: dose: 100.0 mg/kg/injection, schedule: Q04DX003 (ip), vehicle: saline.
The mark [2] stands for this setting: dose: 50.0 mg/kg/injection, schedule: Q01DX005 (ip), vehicle: saline with Tween-80.
Setting [3] is: dose: 100.0 mg/kg/injection, schedule: Q01DX005 (ip), vehicle: saline with Tween-80.
The mark [4] stands for this setting: dose: 50.0 mg/kg/injection, schedule: Q04DX003 (ip), vehicle: saline.
Setting [5] is: dose: 50.0 mg/kg/injection, schedule: Q01DX009 (ip), vehicle: saline.
[6] abbreviates: dose: 100.0 mg/kg/injection, schedule: Q01DX009 (ip), vehicle: saline.
[7] abbreviates: dose: 200.0 mg/kg/injection, schedule: Q01DX009 (ip), vehicle: saline.
[8] abbreviates: dose: 60.0 mg/kg/injection, schedule: Q01DX005 (ip), vehicle: saline with Tween-80.
Where [9] appears, read: dose: 120.0 mg/kg/injection, schedule: Q01DX005 (ip), vehicle: saline with Tween-80.
[10] abbreviates: dose: 240.0 mg/kg/injection, schedule: Q01DX005 (ip), vehicle: saline with Tween-80.
Setting [11] is: dose: 50.0 mg/kg/injection, schedule: Q01DX005 (ip), vehicle: Klucel (hydroxypropylcellulose) (HPC).
Where [12] appears, read: dose: 100.0 mg/kg/injection, schedule: Q01DX005 (ip), vehicle: Klucel (hydroxypropylcellulose) (HPC).
The mark [13] stands for this setting: dose: 200.0 mg/kg/injection, schedule: Q01DX005 (ip), vehicle: Klucel (hydroxypropylcellulose) (HPC).
Where [14] appears, read: dose: 200.0 mg/kg/injection, schedule: Q01DX005 (ip), vehicle: saline with Tween-80.

Values joined by “and” are separate entries in the source; they are usually repeats but may differ in a detail not shown here. Equal entries are not always repeated. Inconclusive results and toxic doses are left out.

In the case of `C[N+]1=CN(S(=O)(=O)C2C=CC=CC=C2)CC1(C)C`, the T/C by setting is: under setting [1], 100 % of control; (dose: 200.0 mg/kg/injection, schedule: Q04DX003 (ip), vehicle: saline) 107 % of control; (dose: 400.0 mg/kg/injection, schedule: Q04DX003 (ip), vehicle: saline) 97 % of control.
`O=C1c2ccccc2C(=O)c2c1cc1c(O)c(CN3CCCC3)ccc1c2O`: the T/C was 92 % of control under setting [2] and 89 % of control under setting [3].
On to `C=CC1CCCCC1C=C` (stereo not given), for which the T/C reads like this: (dose: 12.5 mg/kg/injection, schedule: Q04DX003 (ip), vehicle: saline) 100 % of control; (dose: 25.0 mg/kg/injection, schedule: Q04DX003 (ip), vehicle: saline) 113 % of control; under setting [4], 100 % of control.
In the case of `Cn1c(=O)ccc2ccccc21`, the T/C (dose: 25.0 mg/kg/injection, schedule: Q04DX002 (ip), vehicle: saline with Tween-80) is 103 % of control; the T/C (dose: 50.0 mg/kg/injection, schedule: Q04DX002 (ip), vehicle: saline with Tween-80) is 100 % of control; the T/C under setting [4] was 108 % of control; the T/C (dose: 100.0 mg/kg/injection, schedule: Q04DX002 (ip), vehicle: saline with Tween-80) is 108 % of control; the T/C under setting [1] is 104 % of control and 113 % of control.
Consider `Nn1cn[nH]c1=S`, for which the T/C is, setting by setting: (dose: 25.0 mg/kg/injection, schedule: Q01DX009 (ip), vehicle: saline) 100 % of control; under setting [5], 97 % of control; under setting [6], 98 % of control; under setting [7], 100 % of control.
For the compound `CCN(CC)Cc1cc(C(=O)CC(c2ccccc2)S(=O)(=O)c2ccc(C)cc2)ccc1O` (stereo not given), the T/C was 100 % of control (dose: 1.56 mg/kg/injection, schedule: Q01DX009 (ip), vehicle: saline); 94 % of control (dose: 3.12 mg/kg/injection, schedule: Q01DX009 (ip), vehicle: saline); 97 % of control (dose: 6.25 mg/kg/injection, schedule: Q01DX009 (ip), vehicle: saline); 90 % of control under setting [5].
Take `c1ccc2c(c1)ccc1c2nnc2nnnn21`: the T/C runs as follows: (dose: 50.0 mg/kg/injection, schedule: Q01DX009 (ip), vehicle: Klucel (hydroxypropylcellulose) (HPC)) 104 % of control; (dose: 100.0 mg/kg/injection, schedule: Q01DX009 (ip), vehicle: Klucel (hydroxypropylcellulose) (HPC)) 105 % of control; (dose: 200.0 mg/kg/injection, schedule: Q01DX009 (ip), vehicle: Klucel (hydroxypropylcellulose) (HPC)) 95 % of control.
In the case of `CCCCNc1ccc(-c2c(N)nc(N)nc2CC)cc1[N+](=O)[O-]`, the T/C is, setting by setting: under setting [8], 111 % of control and 118 % of control; under setting [9], 121 % of control; under setting [10], 206 % of control; (dose: 480.0 mg/kg/injection, schedule: Q01DX005 (ip), vehicle: saline with Tween-80) 158 % of control.
With `Cc1ccc(O)c(C(c2ccc3c(c2)OCO3)N2CCOCC2)c1` (stereo not given), the T/C under setting [8] is 101 % of control, the T/C under setting [9] was 100 % of control and the T/C under setting [10] is 97 % of control.
Consider `O=C(OCc1ccccc1)N(CCF)c1cn(Cc2ccccc2)c(=O)n(Cc2ccccc2)c1=O`, for which the T/C is, setting by setting: under setting [11], 93 % of control; under setting [12], 96 % of control; under setting [13], 87 % of control.
As to `CC(=O)OCNCOC(C)=O`, the T/C runs as follows: under setting [6], 106 % of control; under setting [7], 108 % of control; (dose: 400.0 mg/kg/injection, schedule: Q01DX009 (ip), vehicle: saline) 106 % of control.
Consider `COCCC/C=C\N1CCOCC1`, for which the T/C runs as follows: under setting [5], 99 % of control; under setting [6], 101 % of control; under setting [7], 95 % of control.
Take `Nc1nc(-c2ccccn2)cc2cc(Cl)ccc12`: the T/C was 99 % of control under setting [8] and 115 % of control under setting [9].
As for `Cc1cccc(/C=N/Nc2cc(C)c3cccc(C)c3n2)n1`, the T/C under setting [2] is 100 % of control, the T/C under setting [3] was 89 % of control and the T/C under setting [14] is 88 % of control.
Regarding `CN(CCO)c1n[nH]c(=O)c2ccccc12`, the T/C reads like this: (dose: 50.0 mg/kg/injection, schedule: Q01DX009 (ip), vehicle: saline with Tween-80) 109 % of control; (dose: 100.0 mg/kg/injection, schedule: Q01DX009 (ip), vehicle: saline with Tween-80) 101 % of control; (dose: 200.0 mg/kg/injection, schedule: Q01DX009 (ip), vehicle: saline with Tween-80) 101 % of control.
Consider `C=C1C(=O)C23C(O)C1CCC2C12CCCC(C)(C)C1C(O)C3(O)OC2` (stereo not given), for which the T/C is, setting by setting: (dose: 2.5 mg/kg/injection, schedule: Q01DX005 (ip), vehicle: Klucel (hydroxypropylcellulose) (HPC)) 101 % of control; (dose: 5.0 mg/kg/injection, schedule: Q01DX005 (ip), vehicle: Klucel (hydroxypropylcellulose) (HPC)) 107 % of control; (dose: 10.0 mg/kg/injection, schedule: Q01DX005 (ip), vehicle: Klucel (hydroxypropylcellulose) (HPC)) 108 % of control.
As to `O=S(=O)(N/N=C/c1cccc(Cl)c1)c1ccccc1`, the T/C runs as follows: (dose: 60.0 mg/kg/injection, schedule: Q01DX005 (ip), vehicle: Klucel (hydroxypropylcellulose) (HPC)) 109 % of control; (dose: 120.0 mg/kg/injection, schedule: Q01DX005 (ip), vehicle: Klucel (hydroxypropylcellulose) (HPC)) 104 % of control; (dose: 240.0 mg/kg/injection, schedule: Q01DX005 (ip), vehicle: Klucel (hydroxypropylcellulose) (HPC)) 105 % of control.
In the case of `COC(=O)N1C=Cc2ccccc2C1(C#N)C(=S)SC` (stereo not given), the T/C is, setting by setting: under setting [2], 102 % of control; under setting [3], 93 % of control; under setting [14], 91 % of control.
Take `N=C(N)c1cn(C2OC(CO)C(O)C2O)c2ncnc(N)c12` (stereo not given): the T/C is 178 % of control (dose: 1.33 mg/kg/injection, schedule: Q01DX009 (ip), vehicle: saline); 187 % of control (dose: 2.0 mg/kg/injection, schedule: Q01DX009 (ip), vehicle: saline); 183 % of control (dose: 3.0 mg/kg/injection, schedule: Q01DX009 (ip), vehicle: saline); 192 % of control (dose: 4.5 mg/kg/injection, schedule: Q01DX009 (ip), vehicle: saline); 163 % of control (dose: 7.5 mg/kg/injection, schedule: Q04DX003 (ip), vehicle: saline).
Turning to `CN(C)c1ccc(CCc2nc(N)nc3nccnc23)cc1`, the T/C was 96 % of control (dose: 50.0 mg/kg/injection, schedule: Q04DX003 (ip), vehicle: Klucel (hydroxypropylcellulose) (HPC)); 90 % of control (dose: 100.0 mg/kg/injection, schedule: Q04DX003 (ip), vehicle: Klucel (hydroxypropylcellulose) (HPC)); 96 % of control (dose: 200.0 mg/kg/injection, schedule: Q04DX003 (ip), vehicle: Klucel (hydroxypropylcellulose) (HPC)); 99 % of control (dose: 400.0 mg/kg/injection, schedule: Q04DX003 (ip), vehicle: Klucel (hydroxypropylcellulose) (HPC)).
As to `CC(C)(C)c1cc(C#C[Si](C)(C)C)cc(C(C)(C)C)c1`, the T/C was 98 % of control (dose: 6.25 mg/kg/injection, schedule: Q01DX005 (ip), vehicle: Klucel (hydroxypropylcellulose) (HPC)); 101 % of control (dose: 12.5 mg/kg/injection, schedule: Q01DX005 (ip), vehicle: Klucel (hydroxypropylcellulose) (HPC)); 92 % of control (dose: 25.0 mg/kg/injection, schedule: Q01DX005 (ip), vehicle: Klucel (hydroxypropylcellulose) (HPC)).
For `C#CCC(B1OCCO1)B1OCCO1`, the T/C by setting is: (dose: 25.0 mg/kg/injection, schedule: Q01DX001 (ip), vehicle: saline) 100 % of control; (dose: 50.0 mg/kg/injection, schedule: Q01DX001 (ip), vehicle: saline) 90 % of control.
As for `CCC(=O)NS(=O)(=O)c1cccnc1Nc1c(Cl)cccc1Cl`, the T/C under setting [5] was 96 % of control, the T/C under setting [6] was 96 % of control and the T/C under setting [7] was 100 % of control.
For `CC(C)C(=NN/C=N/S(C)(=O)=O)C(C)C`, the T/C reads like this: (dose: 25.0 mg/kg/injection, schedule: Q01DX001 (ip), vehicle: Klucel (hydroxypropylcellulose) (HPC)) 92 % of control; (dose: 50.0 mg/kg/injection, schedule: Q01DX001 (ip), vehicle: Klucel (hydroxypropylcellulose) (HPC)) 112 % of control; (dose: 100.0 mg/kg/injection, schedule: Q01DX001 (ip), vehicle: Klucel (hydroxypropylcellulose) (HPC)) 97 % of control.
In the case of `CN1C(=O)NC2(CCCCC2)C1=O`, the T/C by setting is: under setting [11], 105 % of control; under setting [12], 100 % of control; under setting [13], 100 % of control.

These data come from PubChem BioAssay AID330 (DTP/NCI, 2004).
